The values that follow come from patent publication US20040009890A1, “Broad spectrum inhibitors” (priority 2002, published 2004).

This assay relates to wild type and multidrug resistant HIV strains. Put plainly: Antiviral activity against wild type HIV and multidrug resistant patient isolates (PHA-PBMC, p24 Gag production). Format: cell-based. The following applies: for antiviral activity against HIV derived from patient isolates that contain multiple mutations, compared with wild type HIV strains: patients never exposed to the tested compounds; for antiviral potency against multidrug resistant HIV strains compared with wild type: wild type vs multidrug resistant HIV strains. The source says: IC50 's for broad spectrum protease inhibitors can be measured against wild type HIV and clinically isolated mutant HIV isolates, utilizing the PHA-PBMC exposed to HIV-1 (50 TCID50 dose/[…] PBMC) as target cells and using the inhibition of p24 Gag protein production as an endpoint. The amounts of p24 antigen produced by the cells can be determined on day 7 in culture using a commercially available radioimmunoassay kit.

As to `COc1ccc(S(=O)(=O)N(CC(C)C)C[C@@H](O)[C@H](Cc2ccccc2)NC(=O)O[C@H]2CO[C@H]3OCC[C@H]32)cc1` [Compound 1], the “antiviral activity against HIV derived from patient isolates that contain multiple mutations, compared with wild type HIV strains” value was “equivalent to their activity against wild type HIV strains”; the “antiviral potency against multidrug resistant HIV strains compared with wild type” value (“antiviral potency … compared with wild type” below) is “equally effective against wild type and mutant HIV strains”.
As to `CC(C)CN(C[C@@H](O)[C@H](Cc1ccccc1)NC(=O)O[C@H]1CCOC1)S(=O)(=O)c1ccc(N)cc1` [Compound 2, Amprenavir], the “antiviral activity against HIV derived from patient isolates that contain multiple mutations, compared with wild type HIV strains” value is on record as “much less effective against the same mutant viruses” and the “antiviral potency … compared with wild type” value is reported as “dramatically less potent against the multidrug resistant strains of HIV”.
`CC(C)(C)NC(=O)[C@@H]1C[C@@H]2CCCC[C@@H]2CN1C[C@@H](O)[C@H](Cc1ccccc1)NC(=O)[C@H](CC(N)=O)NC(=O)c1ccc2ccccc2n1` [Compound 4, Saquinavir]: the “antiviral potency … compared with wild type” value is “dramatically less potent against the multidrug resistant strains of HIV”.
Still for that read-out and setting: the value for `CC(C)c1nc(CN(C)C(=O)N[C@H](C(=O)N[C@@H](Cc2ccccc2)C[C@H](O)[C@H](Cc2ccccc2)NC(=O)OCc2cncs2)C(C)C)cs1` [Compound 5, Ritonavir] was “dramatically less potent against the multidrug resistant strains of HIV”; that for `CC(C)(C)NC(=O)[C@@H]1CN(Cc2cccnc2)CCN1C[C@@H](O)C[C@@H](Cc1ccccc1)C(=O)N[C@H]1c2ccccc2C[C@H]1O` [Compound 6, Indinavir] was “dramatically less potent against the multidrug resistant strains of HIV”.
Same read-out and setting: the value for `Cc1c(O)cccc1C(=O)N[C@@H](CSc1ccccc1)[C@H](O)CN1C[C@H]2CCCC[C@H]2C[C@H]1C(=O)NC(C)(C)C` [Compound 7, Nelfinavir] was “dramatically less potent against the multidrug resistant strains of HIV”.
